Here are results for one molecule from ChEMBL document CHEMBL3832080, “DailyMed|setid=f3c5895f-f54b-43d4-9b38-7bfbdf8335b7 | CEFOTAXIME - cefotaxime injection, powder, for solution|WOCKHARDT USA LLC”.

Data set [1] in a line: (§1) Pharmacokinetics parameters for Cefotaxine evaluated after single IV or intramuscular (IM) administration of Cefotaxine to normal volunteers. To be noted: human, in vivo, regimen Single dose. The data set is classed as ADME, organism-based. Also noted: dose 1 g, dose 500 mg, dose 2 g, route iv, route im.
Data set [2] concerns Homo sapiens. The data set is described as §1. It counts as ADME, organism-based. To be noted: in vivo, im, dose 500 mg, dosed compound id 59, dosed compound name CEFOTAXIME, regimen Single dose, tissue Serum. Also noted: dose 1 g, dose 500 mg, dose 2 g, route iv, route im.
Setting [3] is: dose 1 g, dosed compound id 59, dosed compound name CEFOTAXIME, route im, tissue Serum.

Each structure is given as a SMILES string.

In general, half-life refers to the time in which the quantity being followed falls by half. Usually Tmax stands for the time at which the peak concentration occurs. In data set [1] (dose 50 mg/kg, dosed compound id 59, dosed compound name CEFOTAXIME, route iv, study dosing duration 10 to 15 minutes, tissue Urine), `CO/N=C(\C(=O)N[C@@H]1C(=O)N2C(C(=O)[O-])=C(COC(C)=O)CS[C@H]12)c1csc(N)n1.[Na+]` [CEFOTAXIME SODIUM] had a half-life of 4.6 h. In data set [1] (setting [3]), the Tmax is 0.5 h and the half-life was 1 h. Also, the dose excreted in data set [1] (dosed compound id 590, dosed compound name 14C-CEFOTAXIME, route iv, tissue Urine, read-out: Excretion) is 20 to 36%. Also, in data set [2], the Tmax stood at 0.5 h and the t1/2 turned out to be 1 h.
